# From paper PMC9030254, “Target Hopping from Protein Kinases to PXR: Identification of Small-Molecule Protein Kinase Inhibitors as Selective Modulators of Pregnane X Receptor from TüKIC Library” (Cells, 2022)
# Columns and labels:
# Assay in all cases: Kinase profiling
# Type in all cases: biochemical
# COT = target: T1, COT (Homo sapiens, UniProt P41279)
# T1 construct: purchased ProQinase (Freiburg, Germany)
# Procedure: (§1) The analysis was performed by ProQinase (Freiburg, Germany).
# PIM2 = target: T2, PIM2 (Homo sapiens, UniProt Q9P1W9)
# T2 construct: purchased ProQinase (Freiburg, Germany)
# Procedure: as §1
# ACVR2A = target: T3, ACVR2A (Homo sapiens, UniProt P27037)
# T3 construct: purchased ProQinase (Freiburg, Germany)
# Procedure: as §1
# JAK3 = target: T4, JAK3 (Homo sapiens, UniProt P52333)
# T4 construct: purchased ProQinase (Freiburg, Germany)
# T4 sequence (P52333 1-1124): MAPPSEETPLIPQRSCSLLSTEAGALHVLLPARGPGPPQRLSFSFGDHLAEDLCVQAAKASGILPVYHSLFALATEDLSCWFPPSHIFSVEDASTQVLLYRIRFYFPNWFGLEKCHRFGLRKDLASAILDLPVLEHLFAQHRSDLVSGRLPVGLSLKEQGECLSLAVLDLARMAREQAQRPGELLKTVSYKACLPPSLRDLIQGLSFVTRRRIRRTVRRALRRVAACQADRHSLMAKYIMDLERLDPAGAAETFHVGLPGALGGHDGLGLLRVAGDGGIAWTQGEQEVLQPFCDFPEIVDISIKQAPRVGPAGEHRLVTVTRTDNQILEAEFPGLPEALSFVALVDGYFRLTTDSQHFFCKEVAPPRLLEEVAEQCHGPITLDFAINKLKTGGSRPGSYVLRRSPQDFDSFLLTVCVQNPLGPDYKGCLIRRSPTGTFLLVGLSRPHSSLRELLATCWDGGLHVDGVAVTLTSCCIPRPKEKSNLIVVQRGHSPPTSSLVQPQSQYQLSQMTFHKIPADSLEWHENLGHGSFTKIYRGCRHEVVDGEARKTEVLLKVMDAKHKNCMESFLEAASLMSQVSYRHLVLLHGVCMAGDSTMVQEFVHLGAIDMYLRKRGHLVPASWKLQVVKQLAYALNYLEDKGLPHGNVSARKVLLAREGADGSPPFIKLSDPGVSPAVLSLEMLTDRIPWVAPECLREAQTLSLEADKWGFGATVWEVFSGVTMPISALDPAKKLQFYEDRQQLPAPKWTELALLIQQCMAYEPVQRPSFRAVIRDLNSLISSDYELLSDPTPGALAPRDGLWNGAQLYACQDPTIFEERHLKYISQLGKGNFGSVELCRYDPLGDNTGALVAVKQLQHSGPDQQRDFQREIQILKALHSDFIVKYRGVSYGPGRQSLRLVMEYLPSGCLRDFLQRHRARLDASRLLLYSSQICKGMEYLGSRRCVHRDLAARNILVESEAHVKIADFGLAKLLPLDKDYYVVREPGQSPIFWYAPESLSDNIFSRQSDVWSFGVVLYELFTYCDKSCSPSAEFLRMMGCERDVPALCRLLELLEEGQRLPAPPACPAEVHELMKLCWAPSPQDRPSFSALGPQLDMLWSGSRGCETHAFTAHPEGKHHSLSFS
# Procedure: as §1
# CK1gamma1 = target: T5, CK1gamma1 (Homo sapiens, UniProt Q9HCP0)
# T5 construct: purchased ProQinase (Freiburg, Germany)
# Procedure: as §1
# FGR = target: T6, FGR (Homo sapiens, UniProt P09769)
# T6 construct: purchased ProQinase (Freiburg, Germany)
# Procedure: as §1
# SRPK2 = target: T7, SRPK2 (Homo sapiens, UniProt P78362)
# T7 construct: purchased ProQinase (Freiburg, Germany)
# Procedure: as §1
# LCK = target: T8, LCK (Homo sapiens, UniProt P06239)
# T8 construct: purchased ProQinase (Freiburg, Germany)
# Procedure: as §1
# STK33 = target: T9, STK33 (Homo sapiens, UniProt Q9BYT3)
# T9 construct: purchased ProQinase (Freiburg, Germany)
# Procedure: as §1
# BRK = target: T10, BRK (Homo sapiens, UniProt Q13882)
# T10 construct: purchased ProQinase (Freiburg, Germany)
# Procedure: as §1
# CDK3/CycE1 = target: T11, CDK3/CycE1 (Homo sapiens, UniProt Q00526)
# T11 construct: purchased ProQinase (Freiburg, Germany)
# Procedure: as §1
# MLK4 = target: T12, MLK4 (Homo sapiens, UniProt Q5TCX8)
# T12 construct: purchased ProQinase (Freiburg, Germany)
# Procedure: as §1
# CDK6/CycD1 = target: T13, CDK6/CycD1 (Homo sapiens, UniProt Q00534)
# T13 construct: purchased ProQinase (Freiburg, Germany)
# Procedure: as §1
# SYK = target: T14, SYK (Homo sapiens, UniProt P43405)
# T14 construct: purchased ProQinase (Freiburg, Germany)
# Procedure: as §1
# ACVRL1 = target: T15, ACVRL1 (Homo sapiens, UniProt P37023)
# T15 construct: purchased ProQinase (Freiburg, Germany)
# Procedure: as §1
# ERK7 = target: T16, ERK7 (Homo sapiens, UniProt Q8TD08)
# T16 construct: purchased ProQinase (Freiburg, Germany)
# T16 sequence (Q8TD08 1-544): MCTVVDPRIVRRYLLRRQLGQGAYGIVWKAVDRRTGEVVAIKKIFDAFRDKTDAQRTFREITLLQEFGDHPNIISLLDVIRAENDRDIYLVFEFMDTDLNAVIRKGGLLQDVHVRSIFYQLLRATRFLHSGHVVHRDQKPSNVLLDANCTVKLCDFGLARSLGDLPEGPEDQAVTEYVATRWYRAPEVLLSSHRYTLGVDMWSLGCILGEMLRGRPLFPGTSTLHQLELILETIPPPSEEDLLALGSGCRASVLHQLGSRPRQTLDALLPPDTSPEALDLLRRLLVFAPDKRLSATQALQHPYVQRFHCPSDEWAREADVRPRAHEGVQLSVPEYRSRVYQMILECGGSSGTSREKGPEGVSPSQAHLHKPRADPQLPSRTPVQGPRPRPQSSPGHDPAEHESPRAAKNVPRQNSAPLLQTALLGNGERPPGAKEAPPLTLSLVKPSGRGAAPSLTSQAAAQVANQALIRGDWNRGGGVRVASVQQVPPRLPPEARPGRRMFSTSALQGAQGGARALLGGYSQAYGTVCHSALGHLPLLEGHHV
# Procedure: as §1
# DYRK1A = target: T17, DYRK1A (Homo sapiens, UniProt Q13627)
# T17 construct: purchased ProQinase (Freiburg, Germany)
# Procedure: as §1
# T11 sequence (Q00526 whole entry): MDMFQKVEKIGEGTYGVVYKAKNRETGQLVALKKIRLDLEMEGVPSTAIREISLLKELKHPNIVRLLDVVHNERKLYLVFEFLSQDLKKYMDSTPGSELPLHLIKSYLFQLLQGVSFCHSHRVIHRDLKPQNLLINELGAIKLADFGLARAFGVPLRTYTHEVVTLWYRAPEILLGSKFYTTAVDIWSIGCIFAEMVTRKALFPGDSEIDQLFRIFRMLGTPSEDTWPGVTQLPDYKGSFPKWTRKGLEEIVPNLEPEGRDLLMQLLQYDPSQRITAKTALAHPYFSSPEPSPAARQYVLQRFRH
# T11 sequence (P24864 whole entry partner): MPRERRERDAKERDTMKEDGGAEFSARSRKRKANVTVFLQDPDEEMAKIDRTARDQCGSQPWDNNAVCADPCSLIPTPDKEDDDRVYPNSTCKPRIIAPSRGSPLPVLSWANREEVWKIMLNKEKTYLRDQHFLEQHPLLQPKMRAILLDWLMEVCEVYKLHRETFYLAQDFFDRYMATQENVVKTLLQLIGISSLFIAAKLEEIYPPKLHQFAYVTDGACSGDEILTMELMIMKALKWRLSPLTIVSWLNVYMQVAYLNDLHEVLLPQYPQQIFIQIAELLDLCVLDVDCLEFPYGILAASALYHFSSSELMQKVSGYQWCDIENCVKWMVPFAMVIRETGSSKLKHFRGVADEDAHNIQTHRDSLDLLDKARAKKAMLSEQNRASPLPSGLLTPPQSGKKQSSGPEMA
# T2 sequence (Q9P1W9 whole entry): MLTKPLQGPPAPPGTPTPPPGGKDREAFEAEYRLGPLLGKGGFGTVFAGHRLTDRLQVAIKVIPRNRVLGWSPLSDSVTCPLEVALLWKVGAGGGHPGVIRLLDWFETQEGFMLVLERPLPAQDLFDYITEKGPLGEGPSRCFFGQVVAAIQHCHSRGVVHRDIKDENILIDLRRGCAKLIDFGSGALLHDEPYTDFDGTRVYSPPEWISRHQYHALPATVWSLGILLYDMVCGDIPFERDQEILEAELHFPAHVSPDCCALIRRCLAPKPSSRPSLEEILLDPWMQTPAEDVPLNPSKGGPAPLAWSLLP
# T7 sequence (P78362 whole entry): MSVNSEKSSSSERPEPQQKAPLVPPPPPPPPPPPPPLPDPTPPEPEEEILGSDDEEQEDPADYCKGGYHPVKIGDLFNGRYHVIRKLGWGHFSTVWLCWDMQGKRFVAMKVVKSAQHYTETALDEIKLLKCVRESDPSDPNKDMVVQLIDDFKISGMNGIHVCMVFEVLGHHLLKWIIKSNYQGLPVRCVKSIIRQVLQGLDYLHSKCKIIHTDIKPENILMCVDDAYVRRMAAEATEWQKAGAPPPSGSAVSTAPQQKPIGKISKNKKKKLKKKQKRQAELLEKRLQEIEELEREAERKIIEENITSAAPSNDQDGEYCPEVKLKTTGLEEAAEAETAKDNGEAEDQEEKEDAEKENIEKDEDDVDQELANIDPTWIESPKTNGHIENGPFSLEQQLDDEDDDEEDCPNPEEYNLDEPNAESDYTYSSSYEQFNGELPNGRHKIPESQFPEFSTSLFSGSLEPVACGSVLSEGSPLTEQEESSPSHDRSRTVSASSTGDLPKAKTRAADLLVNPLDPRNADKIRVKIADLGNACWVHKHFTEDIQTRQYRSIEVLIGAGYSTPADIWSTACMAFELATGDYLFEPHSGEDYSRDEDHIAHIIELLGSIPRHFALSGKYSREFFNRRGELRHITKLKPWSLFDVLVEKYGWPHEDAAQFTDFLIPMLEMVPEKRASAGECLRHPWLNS
# T9 sequence (Q9BYT3 whole entry): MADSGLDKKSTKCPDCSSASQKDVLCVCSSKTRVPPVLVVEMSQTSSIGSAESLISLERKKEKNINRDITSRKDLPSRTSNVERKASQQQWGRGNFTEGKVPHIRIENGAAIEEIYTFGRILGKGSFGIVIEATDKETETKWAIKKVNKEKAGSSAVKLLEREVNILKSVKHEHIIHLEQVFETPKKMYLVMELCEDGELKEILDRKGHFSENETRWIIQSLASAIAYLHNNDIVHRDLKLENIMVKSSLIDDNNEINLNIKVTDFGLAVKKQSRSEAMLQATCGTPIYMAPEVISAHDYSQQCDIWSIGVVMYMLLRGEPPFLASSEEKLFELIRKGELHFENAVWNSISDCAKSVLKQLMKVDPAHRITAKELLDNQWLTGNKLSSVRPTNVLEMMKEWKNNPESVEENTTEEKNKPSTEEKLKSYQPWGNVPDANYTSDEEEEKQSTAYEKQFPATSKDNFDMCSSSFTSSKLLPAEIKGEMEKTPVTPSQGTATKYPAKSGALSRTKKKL
# T1 sequence (P41279 whole entry): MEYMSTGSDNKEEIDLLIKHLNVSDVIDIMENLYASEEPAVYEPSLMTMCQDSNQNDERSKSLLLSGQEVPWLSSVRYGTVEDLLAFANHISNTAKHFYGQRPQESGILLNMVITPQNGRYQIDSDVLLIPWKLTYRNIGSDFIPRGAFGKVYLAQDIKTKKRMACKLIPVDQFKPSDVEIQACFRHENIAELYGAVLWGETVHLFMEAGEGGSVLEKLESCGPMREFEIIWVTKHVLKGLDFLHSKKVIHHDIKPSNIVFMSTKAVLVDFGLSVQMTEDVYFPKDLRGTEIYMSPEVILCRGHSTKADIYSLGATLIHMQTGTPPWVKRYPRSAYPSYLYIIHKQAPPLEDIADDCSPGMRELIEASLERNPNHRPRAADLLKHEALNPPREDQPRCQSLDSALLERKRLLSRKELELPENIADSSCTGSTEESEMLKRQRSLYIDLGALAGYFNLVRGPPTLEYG
# T3 sequence (P27037 20-513): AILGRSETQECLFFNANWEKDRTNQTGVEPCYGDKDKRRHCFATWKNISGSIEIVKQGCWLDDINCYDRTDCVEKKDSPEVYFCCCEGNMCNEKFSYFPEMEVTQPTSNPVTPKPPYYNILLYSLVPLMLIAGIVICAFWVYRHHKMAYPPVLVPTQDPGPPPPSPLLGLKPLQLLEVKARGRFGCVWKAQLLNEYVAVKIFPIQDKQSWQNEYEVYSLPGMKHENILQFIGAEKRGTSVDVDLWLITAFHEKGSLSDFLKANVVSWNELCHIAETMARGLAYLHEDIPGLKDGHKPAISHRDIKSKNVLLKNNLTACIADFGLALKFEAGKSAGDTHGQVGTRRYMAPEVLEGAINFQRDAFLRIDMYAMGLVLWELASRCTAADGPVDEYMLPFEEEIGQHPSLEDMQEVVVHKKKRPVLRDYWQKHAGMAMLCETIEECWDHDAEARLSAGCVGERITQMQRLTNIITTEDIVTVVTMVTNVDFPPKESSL
# T15 sequence (P37023 22-503): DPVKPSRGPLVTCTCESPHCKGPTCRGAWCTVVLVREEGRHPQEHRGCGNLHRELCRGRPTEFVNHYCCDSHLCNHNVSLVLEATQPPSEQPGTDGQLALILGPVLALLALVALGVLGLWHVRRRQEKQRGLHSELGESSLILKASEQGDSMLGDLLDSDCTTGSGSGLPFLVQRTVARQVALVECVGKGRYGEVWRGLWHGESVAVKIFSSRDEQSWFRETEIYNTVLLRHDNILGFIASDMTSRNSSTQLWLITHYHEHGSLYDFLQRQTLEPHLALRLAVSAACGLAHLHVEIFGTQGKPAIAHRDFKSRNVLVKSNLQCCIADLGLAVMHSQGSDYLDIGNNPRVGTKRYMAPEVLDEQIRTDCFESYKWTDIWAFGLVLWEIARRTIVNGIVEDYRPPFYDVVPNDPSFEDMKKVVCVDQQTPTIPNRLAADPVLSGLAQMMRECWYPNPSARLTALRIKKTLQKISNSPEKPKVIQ
# T8 sequence (P06239 whole entry): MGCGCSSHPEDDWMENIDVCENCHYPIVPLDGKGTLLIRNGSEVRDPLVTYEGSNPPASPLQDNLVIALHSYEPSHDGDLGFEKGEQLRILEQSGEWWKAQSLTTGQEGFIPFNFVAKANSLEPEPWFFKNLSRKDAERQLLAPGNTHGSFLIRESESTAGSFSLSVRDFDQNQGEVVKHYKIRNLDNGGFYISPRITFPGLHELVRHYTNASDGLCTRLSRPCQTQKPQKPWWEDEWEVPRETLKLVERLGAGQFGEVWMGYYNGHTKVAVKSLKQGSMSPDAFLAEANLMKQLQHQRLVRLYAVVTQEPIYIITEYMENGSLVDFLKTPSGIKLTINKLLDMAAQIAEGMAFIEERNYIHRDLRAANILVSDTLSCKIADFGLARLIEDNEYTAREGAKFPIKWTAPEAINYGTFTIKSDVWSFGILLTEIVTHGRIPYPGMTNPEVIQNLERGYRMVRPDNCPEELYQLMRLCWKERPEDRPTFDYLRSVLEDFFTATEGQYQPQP
# T13 sequence (Q00534 whole entry): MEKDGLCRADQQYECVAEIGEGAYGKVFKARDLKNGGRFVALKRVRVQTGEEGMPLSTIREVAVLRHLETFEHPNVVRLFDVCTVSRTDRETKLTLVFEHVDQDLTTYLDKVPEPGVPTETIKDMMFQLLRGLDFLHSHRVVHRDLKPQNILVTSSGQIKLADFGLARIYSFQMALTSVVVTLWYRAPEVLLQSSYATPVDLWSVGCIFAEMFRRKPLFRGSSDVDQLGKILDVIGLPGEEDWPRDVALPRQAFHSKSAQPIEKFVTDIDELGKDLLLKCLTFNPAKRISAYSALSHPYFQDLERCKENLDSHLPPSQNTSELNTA
# T13 sequence (P24385 whole entry partner): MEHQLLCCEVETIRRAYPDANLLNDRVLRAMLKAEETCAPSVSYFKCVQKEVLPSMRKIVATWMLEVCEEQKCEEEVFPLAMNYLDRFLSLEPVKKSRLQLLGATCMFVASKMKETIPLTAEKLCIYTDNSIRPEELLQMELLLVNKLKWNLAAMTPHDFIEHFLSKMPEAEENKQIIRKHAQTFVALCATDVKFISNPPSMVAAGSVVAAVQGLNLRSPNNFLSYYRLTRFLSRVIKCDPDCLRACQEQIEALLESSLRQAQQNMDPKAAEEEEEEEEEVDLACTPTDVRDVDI
Structure (SMILES),Residual activity (COT; 1.0E-05 M),Residual activity (COT; 1.0E-06 M),Residual activity (PIM2; 1.0E-05 M),Residual activity (PIM2; 1.0E-06 M),Residual activity (ACVR2A; 1.0E-05 M),Residual activity (ACVR2A; 1.0E-06 M),Residual activity (JAK3; 1.0E-05 M),Residual activity (JAK3; 1.0E-06 M),Residual activity (CK1gamma1; 1.0E-05 M),Residual activity (CK1gamma1; 1.0E-06 M),Residual activity (FGR; 1.0E-05 M),Residual activity (FGR; 1.0E-06 M),Residual activity (SRPK2; 1.0E-05 M),Residual activity (SRPK2; 1.0E-06 M),Residual activity (LCK; 1.0E-05 M),Residual activity (LCK; 1.0E-06 M),Residual activity (STK33; 1.0E-05 M),Residual activity (STK33; 1.0E-06 M),Residual activity (BRK; 1.0E-05 M),Residual activity (BRK; 1.0E-06 M),also measured
O=C(Cc1ccccc1)Nc1ccc(F)c(Nc2ccc3c(c2)CCCCC3=O)c1 [Compound 100],106 % of control,93 % of control,92 % of control,109 % of control,95 % of control,89 % of control,75 % of control,80 % of control,115 % of control,111 % of control,82 % of control,108 % of control,94 % of control,100 % of control,66 % of control,107 % of control,96 % of control,109 % of control,106 % of control,105 % of control,Residual activity (CDK3/CycE1; 1.0E-05 M): 80 % of control; Residual activity (CDK3/CycE1; 1.0E-06 M): 90 % of control; Residual activity (MLK4; 1.0E-05 M): 102 % of control; Residual activity (MLK4; 1.0E-06 M): 94 % of control; Residual activity (CDK6/CycD1; 1.0E-05 M): 89 % of control; Residual activity (CDK6/CycD1; 1.0E-06 M): 93 % of control; Residual activity (SYK; 1.0E-05 M): 89 % of control; Residual activity (SYK; 1.0E-06 M): 105 % of control; Residual activity (ACVRL1; 1.0E-05 M): 100 % of control; Residual activity (ACVRL1; 1.0E-06 M): 106 % of control; Residual activity (ERK7; 1.0E-05 M): 85 % of control; Residual activity (ERK7; 1.0E-06 M): 96 % of control; Residual activity (DYRK1A; 1.0E-05 M): 98 % of control; Residual activity (DYRK1A; 1.0E-06 M): 92 % of control
O=C(Nc1ccc(F)c(Nc2ccc3c(c2)CCCCC3=O)c1)c1cccc(F)c1 [Compound 109],97 % of control,95 % of control,86 % of control,100 % of control,108 % of control,99 % of control,79 % of control,83 % of control,57 % of control,86 % of control,84 % of control,105 % of control,102 % of control,111 % of control,84 % of control,102 % of control,99 % of control,93 % of control,84 % of control,105 % of control,Residual activity (CDK3/CycE1; 1.0E-05 M): 82 % of control; Residual activity (CDK3/CycE1; 1.0E-06 M): 91 % of control; Residual activity (MLK4; 1.0E-05 M): 99 % of control; Residual activity (MLK4; 1.0E-06 M): 99 % of control; Residual activity (CDK6/CycD1; 1.0E-05 M): 90 % of control; Residual activity (CDK6/CycD1; 1.0E-06 M): 84 % of control; Residual activity (SYK; 1.0E-05 M): 94 % of control; Residual activity (SYK; 1.0E-06 M): 95 % of control; Residual activity (ACVRL1; 1.0E-05 M): 109 % of control; Residual activity (ACVRL1; 1.0E-06 M): 94 % of control; Residual activity (ERK7; 1.0E-05 M): 98 % of control; Residual activity (ERK7; 1.0E-06 M): 99 % of control; Residual activity (DYRK1A; 1.0E-05 M): 92 % of control; Residual activity (DYRK1A; 1.0E-06 M): 92 % of control
